# Data from patent US5880146A, “Inhibition of IL-12-induced IFN-γ synthesis by specific bis-phenol compounds as a method of immune modulation” (Fuji ImmunoPharmaceuticals Corporation, priority 1995, dated 1999).
# Key:
# [1] = Cell viability (MTS) after treatment with bis-compound; assay type: cell-based; conditions: human, pha-activated pbmc, 5 μg/ml
# Procedure: Human peripheral blood monocytes (PBMC) were obtained from commercial sources as a leukophoresis from a healthy volunteer and were purified by centrifugation on a Ficoll-Hypaque (Pharmacia) gradient (1700 rpm for 20 min). The "buffy" coat containing the PBMC was diluted with serum-free culture medium (SF-RPMI) to a volume of 50 ml and collected by centrifugation at 1500 rpm for 5 min. Cells were resuspended in cell culture medium containing 10% fetal bovine serum (RPMI-10) and phytohemaglutinin (PHA - 10 μg/ml) at a density of 5×10^6 cells/ml and were cultured for 3 days at 37° C. in a humidified CO2 incubator. The PHA-activated cells were collected by centrifugation, washed three times with an equal volume of SF-RPMI and resuspended in fresh RPMI-10 (1×10^6 cells /ml). Aliquots (100 μl) were dispensed into the wells of multiple 96-well plates to give a final cell number of 10^5 per well. Test compounds, dissolved in dimethyl sulfoxide (DMSO) at 1 mg/ml, were first diluted in culture medium to an intermediate concentration of 20 μg/ml and then were added (50 μwell) to a specific well of the plate for each compound. Stimulation medium (50 μl/well) containing 10% serum, IL-2 and IL-12 was added to final concentrations of 25 U/ml and 0.5 ng/ml, respectively. Control wells receive no IL-2 or IL-12 (negative control) or received both interleukins but no test compound (positive control). The plates were incubated for 48 hr at 37° C. in a CO2 incubator at which time aliquots (20 μl) were removed for analysis of IFN-γ concentration by ELISA. A quantitative ELISA was developed by coating 96-well plates with an mouse monoclonal antibody against human IFN-γ, 1 μg/ml in phosphate buffered saline (PBS) (Pestka Biological Laboratories), overnight at 4° C. Unbound antibody was washed off by washing three times with PBS. Non-specific antibody binding was blocked with a solution of 1% bovine serum albumin (BSA) and 1% goat serum in PBS (150 μl/well) which was incubated for 2 hr at 37° C. After washing the blocked plates four times with PBS, test samples and dilutions of the IFN-γ standard are added in a final volume of 100 μl/well. Following an overnight incubation at 4° C., the plates are washed four times with PBS, and a polyclonal rabbit antiserum against human IFN-γ (1/10000 dilution--Petska Biological Laboratories) is added. After an additional incubation for 1 hr at 37° C. and four washes with PBS, a polyclonal donkey anti-rabbit detecting antibody, conjugated to horseradish peroxidase (1/700 dilution--Petska Biological Laboratories) is added for 1 hr at 37° C. The plates are then washed four times with PBS and 100 μl of K-blue substrate E(ILISA Technologies, Neogen Corp.) is added until the color in the wells containing the standard curve is sufficiently developed, at which time 100 μl of "Red-stop" solution (ELISA Technologies) is added. The absorbance of the solution within each well of the plate is then read at 650 nm using an ELISA plate reader (Dynatech MR7000). The amount of IFN-γ is calculated by comparing the optical density of the test sample with a standard curve derived from the dilutions of the control IFN-y. […] MTS is a chemical chromophore that is metabolized in the mitochondria of viable cells to produce a color which increases in intensity in proportion to the numbers of viable cells. The absorbance of the cell culture can be compared to control cultures in order to determine the percent viability.
# [2] = system: T cell response of human PBMC to allogenic stimulation by Namalwa cells; experiment: Mixed Lymphocyte Reaction (proliferation and IFN-γ secretion); assay type: cell-based; conditions: 6 days; FIGS. 1-3
# Procedure: This reaction measures the T cell response to allogenic stimulation by a mismatch of class II histocompatability antigens. This is triggered through the T cell receptor and activates the T cell to secrete and proliferate in response to endogenous IL-2. IFN-γ is also made in response to this stimulation and accumulates in the culture medium. Compounds are tested for their ability to block the proliferation and response to antigenic stimulation as well as their ability to produce IFN-γ as follows. A human B cell ine expressing class II antigen, Namalwa (American Type Culture Collection), is incubated for 2 hr at 37° C. in RPMI-10 containing mitomycin C (50 μg/ml). These cells are washed four times by centrifugation and resuspension (10^6 cells/ml) in SF-RPMI medium and are added to the wells of 96-well plate (50 μl/well) as stimulators. Mitomycin treatment prevents these cells from proliferating in the assay. Fresh PBMC are prepared as described above in example 1, but are not activated with PHA. Instead they are resuspended at 10^6 cells/ml and 100 μl is added per well. Dilutions of test compounds are added (50 μl/well) to give a final volume of 200 μl and the plates are incubated for 6 days at 37° C. During the last 18 hr, ^3 H-thymidine (DuPont-NEN- 1 μCi/well) is added as a measure of cell proliferation, cultures are collected using a cell harvester (Packard), and scintillation fluid is added prior to counting in a Packard Top Count scintillation counter. A sample of medium is also collected for measurement of IFN-γ production prior to the addition of ^3 H-thymidine for use as a negative control.
Structure (SMILES),viability [1] [%],inhibition of IFN-γ secretion versus cell proliferation (in words) [2]
CCCCCCCC(c1cc(C)cc(C)c1O)c1cc(C)cc(C)c1O [Compound 51852],105,more potent inhibitors of secretion at concentrations that do not effect cell proliferation
"Cc1cc(C)c(O)c(C(CC(C)CC(C)(C)C)c2cc(C)cc(C)c2O)c1 (stereo not shown) [Compound 51853, bis-1,1-[2-hydroxy-3,5-dimethylphenyl]-3,5,5-dimethyl hexan]",104,more potent inhibitors of secretion at concentrations that do not effect cell proliferation
